Test results: article PMC10459521, “Unfolding the Antibacterial Activity and Acetylcholinesterase Inhibition Potential of Benzofuran-Triazole Hybrids: Synthesis, Antibacterial, Acetylcholinesterase Inhibition, and Molecular Docking Studies” (Molecules, 2023)
In brackets after ≈: the same amount, converted by molar mass. Where two headings read alike, the source gives them in different places.

What was measured:
AChE = conditions: Figure 2; cited from earlier work
B. subtilis QB-928 = assay: Antibacterial assay, disc diffusion method (inhibition zone and MIC); assay type: cell-based; conditions: for Inhibition Zone: disc diffusion; for Inhibition Zone / zone of inhibition at 25 µg/disc: 25 μg per disc, includes 5.6 mm disc diameter; for zone of inhibition at 25 µg/disc: QB928, disc diffusion
Experimental: (§1) The evaluation of in vitro antibacterial activity of synthesized compounds was performed against two bacterial strains, namely Gram +ve B. subtilis QB-928 and Gram −ve E. coli AB-274 using the disc diffusion method.
(§2) The antibacterial potential of all targeted compounds was evaluated using the disc diffusion method. A suspension of 100 μL containing 10^8 cfu/mL of bacteria was applied on nutrient agar media with the support of a sterilized loop. The compound solution was infused into sterilized filter paper discs (5.6 mm in diameter) at a particular concentration (25 μg/100 μL) in chloroform. The standard penicillin (25 μg per disc) was utilized as a positive control for antibacterial assay. These discs were carefully placed on agar which had originally been […] with selected bacterial cells. The agar culture plates were stored at 4 °C for 1 h and then the bacterial culture plate was incubated at 27 °C for 24 h. The inhibition zone was determined in millimeters (including the 5.6 mm disc diameter) with a reference control.

E. coli AB-274 = assay: as above; assay type: cell-based; conditions: for Inhibition Zone / zone of inhibition at 25 µg/disc: disc diffusion, 25 μg per disc, includes 5.6 mm disc diameter
Experimental: as §1
as §2, with “The compound solution was infused into sterilized filter paper discs (5.6 mm in diameter) at a particular concentration (25 μg/100 μL) in chloroform.” left out, “The inhibition zone was determined in millimeters (including the 5.6 mm disc diameter) with a reference control.” left out

[1] = molecular target: acetylcholinesterase (AChE) (Homo sapiens, UniProt P22303); assay: AChE inhibition assay (modified Ellman's method); assay type: biochemical; conditions: for inhibition at 500 µM: 0.5 mM; for IC50: Ellman's method
Experimental: The inhibitory effects of all synthesized derivatives on AChE activities were measured using a modified Ellman’s method. This experimental study used DTNB (5,5′-dithio-bis(2-nitro-benzoic)acid) and AChI as the […]. The tested compounds (10 µL; […]) were mixed with AChE (50 µL; 38 U) solution and incubated for 10 min at 25 °C. DTNB (50 µL; 0.3 mM) was then added. The transfer of AChI (200 µL; 50 mM Tris/HCl buffer pH = 8) initiated the reaction. A spectrophotometer recorded the hydrolysis of AChI by the formation of yellow 5-thio-2-nitrobenzoate anions as a result of the reaction of DTNB with thiocholine at a wavelength of 412 nm. […] The given formula was used to calculate the (%) inhibition: Inhibition %=Control−Test/Control×100
IC50 values were calculated using data from GraphPad Prism 5 software.

[2] = Escherichia coli, AB274, E. coli
[3] = Bacillus subtilis, QB928, read-out: MIC
[4] = Escherichia coli, AB274, E. coli, read-out: MIC

Sequence of acetylcholinesterase (AChE) (P22303 32-614): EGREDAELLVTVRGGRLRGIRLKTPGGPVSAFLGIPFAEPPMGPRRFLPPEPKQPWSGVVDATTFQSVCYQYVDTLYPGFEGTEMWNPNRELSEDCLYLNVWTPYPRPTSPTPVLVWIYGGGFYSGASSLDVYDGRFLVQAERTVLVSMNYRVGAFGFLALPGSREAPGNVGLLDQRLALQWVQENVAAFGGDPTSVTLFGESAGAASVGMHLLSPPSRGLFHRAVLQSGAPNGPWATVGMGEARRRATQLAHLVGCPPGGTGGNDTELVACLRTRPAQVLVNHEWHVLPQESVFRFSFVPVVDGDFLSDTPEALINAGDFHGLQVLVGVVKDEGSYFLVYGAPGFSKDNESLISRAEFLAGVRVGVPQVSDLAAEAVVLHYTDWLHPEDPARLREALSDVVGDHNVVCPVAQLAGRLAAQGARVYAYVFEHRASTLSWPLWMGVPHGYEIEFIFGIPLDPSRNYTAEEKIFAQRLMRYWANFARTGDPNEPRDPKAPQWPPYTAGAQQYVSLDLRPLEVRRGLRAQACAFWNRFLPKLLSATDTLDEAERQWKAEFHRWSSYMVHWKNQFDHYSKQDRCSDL

For `Cc1cc(C)cc(C[n+]2ccc(-c3cc4ccccc4o3)cc2)c1` [Compound 1a], the IC50 (AChE) is given as 4.1 ± 1.5 nM.
In the case of `O=C(NCCCNc1c2c(nc3cc(Cl)ccc13)CCCC2)c1cc2ccccc2o1` [Compound 1b], the IC50 (AChE) is given as 120 nM.
For `COc1cccc2cc(C(=O)NCCCCNC(=O)c3cc4ccccc4o3)c(=O)oc12` [Compound 1c], the IC50 (AChE) is listed as 180 ± 50 nM.
In the case of `COc1cccc2cc(C(=O)NCCn3ccc(=O)c(OCc4ccccc4)c3C)oc12` [Compound 1d], the IC50 (AChE) is given as 76000 nM.
For `O=C(CSc1nnc(-c2cc3cc(Br)ccc3o2)n1-c1ccccc1)Nc1ccccc1` [Compound 10a, 2-((5-(5-bromobenzofuran-2-yl)-4-phenyl-4H-1,2,4-triazol-3-yl)thio)-N-phenylacetamide], the “Inhibition Zone” value (B. subtilis QB-928) was “no detectable results”, the MIC (E. coli AB-274; E. coli) was 1.80 µg/mL (≈ 3.56 µM) and the “Inhibition Zone” value (E. coli AB-274; E. coli) was 38 ± 1.50 mm. For the same compound, the MIC (E. coli AB-274; Escherichia coli, AB274) was 1.8 ± 0.25 µg/mL (≈ 3.56 µM), the zone of inhibition at 25 µg/disc (E. coli AB-274; [2]) was 38 mm and the inhibition at 500 µM [1] was 65.8 ± 1.5%. It also gave an IC50 [1] of 880 ± 500 nM.
`Cc1ccc(NC(=O)CSc2nnc(-c3cc4cc(Br)ccc4o3)n2-c2ccccc2)cc1C` [Compound 10b, 2-((5-(5-Bromobenzofuran-2-yl)-4-phenyl-4H-1,2,4-triazol-3-yl)thio)-N-(3,4-dimethylphenyl)acetamide] showed an MIC (B. subtilis QB-928) of 1.25 µg/mL (≈ 2.34 µM), a zone of inhibition at 25 µg/disc (B. subtilis QB-928; Bacillus subtilis) of 42 mm and an MIC (B. subtilis QB-928; [3]) of 1.25 ± 0.6 µg/mL (≈ 2.34 µM). For the same compound, the “Inhibition Zone” value (B. subtilis QB-928) was 42 ± 1.00 mm, the “Inhibition Zone” value (E. coli AB-274; E. coli) was 11.5 ± 1.40 mm and the zone of inhibition at 25 µg/disc (E. coli AB-274; [2]) was 11.5 mm. The MIC (E. coli AB-274; [4]) was 3.8 ± 2.1 µg/mL (≈ 7.12 µM), the inhibition at 500 µM [1] was 61.7 ± 1.5% and the IC50 [1] was 1500 ± 1000 nM.
With `O=C(CSc1nnc(-c2cc3cc(Br)ccc3o2)n1-c1ccccc1)Nc1ccc([N+](=O)[O-])cc1` [Compound 10c, 2-((5-(5-Bromobenzofuran-2-yl)-4-phenyl-4H-1,2,4-triazol-3-yl)thio)-N-(4-nitrophenyl)acetamide] the “Inhibition Zone” value (B. subtilis QB-928) was “no detectable results”, the “Inhibition Zone” value (E. coli AB-274; E. coli) was 28 ± 0.00 mm and the zone of inhibition at 25 µg/disc (E. coli AB-274; [2]) was 28 mm. The MIC (E. coli AB-274; [4]) was 2.5 ± 0.7 µg/mL (≈ 4.54 µM), the inhibition at 500 µM [1] was 55.9 ± 1.25% and the IC50 [1] was 2280 ± 1750 nM.
With `COc1ccc(OC)c(NC(=O)CSc2nnc(-c3cc4cc(Br)ccc4o3)n2-c2ccc(Cl)c(Cl)c2)c1` [Compound 10d, 2-((5-(5-Bromobenzofuran-2-yl)-4-(3,4-dichlorophenyl)-4H-1,2,4-triazol-3-yl)thio)-N-(2,5-dimethoxyphenyl)acetamide] the zone of inhibition at 25 µg/disc (B. subtilis QB-928; Bacillus subtilis) was 11 mm, the MIC (B. subtilis QB-928; [3]) was 9.25 ± 1.25 µg/mL (≈ 14.6 µM) and the “Inhibition Zone” value (B. subtilis QB-928) was 11 ± 0.50 mm. For the same compound, the “Inhibition Zone” value (E. coli AB-274; E. coli) was 12 ± 0.65 mm, the zone of inhibition at 25 µg/disc (E. coli AB-274; [2]) was 12 mm and the MIC (E. coli AB-274; [4]) was 16 ± 1 µg/mL (≈ 25.2 µM). It also gave an inhibition at 500 µM [1] of 81.45 ± 0.5% and an IC50 [1] of 550 ± 1000 nM.
For `O=C(CSc1nnc(-c2cc3cc(Br)ccc3o2)n1-c1ccc(Cl)c(Cl)c1)Nc1ccc(Cl)c(Cl)c1` [Compound 10e, 2-((5-(5-Bromobenzofuran-2-yl)-4-(3,4-dichlorophenyl)-4H-1,2,4-triazol-3-yl)thio)-N-(3,4-dichlorophenyl)acetamide], the zone of inhibition at 25 µg/disc (B. subtilis QB-928; Bacillus subtilis) was 8 mm, the MIC (B. subtilis QB-928; [3]) was 14 ± 1.8 µg/mL (≈ 21.8 µM) and the “Inhibition Zone” value (B. subtilis QB-928) was 8 ± 0.75 mm. For the same compound, the “Inhibition Zone” value (E. coli AB-274; E. coli) was 24 ± 0.50 mm, the zone of inhibition at 25 µg/disc (E. coli AB-274; [2]) was 24 mm and the MIC (E. coli AB-274; [4]) was 2.5 ± 1.4 µg/mL (≈ 3.89 µM). For the same compound, the inhibition at 500 µM [1] was 51.2 ± 1.24% and the IC50 [1] was 1980 ± 250 nM.
In the case of penicillin [reference compound], the MIC (B. subtilis QB-928) is reported as 1 ± 1.50 µg/mL, the “Inhibition Zone” value (B. subtilis QB-928) is reported as 18 ± 0.50 mm and the “Inhibition Zone” value (B. subtilis QB-928; listed as penicillin) is reported as 18 mm. For the same compound, the MIC (B. subtilis QB-928; listed as penicillin) was 1 µg/mL, the MIC (E. coli AB-274; E. coli) was 2.4 ± 1.00 µg/mL and the “Inhibition Zone” value (E. coli AB-274; E. coli) was 24 ± 0.50 mm.
